In general, IC50 refers to the midpoint of a concentration-inhibition curve.

Assay [1] addresses T1, HMG CoA reductase (Rattus norvegicus, UniProt P51639).
T1 construct: measured with rat liver microsomes; from tissue; host or cells: rat liver microsomes
T1 sequence (P51639 1-887): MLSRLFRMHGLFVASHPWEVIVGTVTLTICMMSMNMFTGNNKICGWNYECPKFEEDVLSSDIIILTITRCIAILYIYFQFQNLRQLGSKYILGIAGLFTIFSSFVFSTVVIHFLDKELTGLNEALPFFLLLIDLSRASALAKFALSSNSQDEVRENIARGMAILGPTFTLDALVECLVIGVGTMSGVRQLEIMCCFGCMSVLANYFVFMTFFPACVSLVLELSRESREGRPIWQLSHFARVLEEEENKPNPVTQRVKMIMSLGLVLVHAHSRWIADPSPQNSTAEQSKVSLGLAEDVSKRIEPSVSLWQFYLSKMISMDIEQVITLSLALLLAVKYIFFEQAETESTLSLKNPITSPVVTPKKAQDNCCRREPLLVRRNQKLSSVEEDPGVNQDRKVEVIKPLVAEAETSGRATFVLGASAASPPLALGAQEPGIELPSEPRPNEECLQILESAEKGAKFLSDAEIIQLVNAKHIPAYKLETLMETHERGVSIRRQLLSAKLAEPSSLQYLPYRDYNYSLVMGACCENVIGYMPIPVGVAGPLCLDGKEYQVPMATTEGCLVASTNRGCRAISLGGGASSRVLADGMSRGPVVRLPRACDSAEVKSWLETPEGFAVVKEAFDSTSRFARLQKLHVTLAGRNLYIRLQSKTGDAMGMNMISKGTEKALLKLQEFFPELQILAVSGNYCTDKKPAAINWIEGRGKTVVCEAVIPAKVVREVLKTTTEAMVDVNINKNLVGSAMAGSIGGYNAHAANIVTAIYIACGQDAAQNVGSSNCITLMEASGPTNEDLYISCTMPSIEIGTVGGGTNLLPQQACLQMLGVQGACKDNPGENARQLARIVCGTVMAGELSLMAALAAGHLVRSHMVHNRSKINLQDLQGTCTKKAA
The experiment in a line: Inhibition of HMG CoA reductase catalysis in rat liver microsomes (radioactive assay of mevalonate production). Conditions: for IC50: pH 6.8, 37° C., 15-min. incubation, four concentrations in triplicate, 14C-HMG CoA substrate. The format is biochemical. How it is done: The antihypercholesterolemic activity of each novel compound was measured using the following test. The potency of compactin and each analog as an inhibitor of HMG CoA reductase catalysis was measured with rat liver microsomes. […] Four concentrations of each compound ranging over four appropriate orders of magnitude were tested. The effect on the initial velocity of mevalonate production was determined in a radioactive assay system. […] All components but the ^14 C-HMG CoA were preincubated at 37° C. for 10 min. The inhibitor in 10 μL of DMSO was then added (control samples received DMSO only) and a 15-min. incubation was initiated by the addition of substrate. Catalysis was terminated with 33% aqueous KOH (50 μL). After 30 min., 25 μL of aqueous 0.05% bromophenol, 70000 dpm of (5-^3 H)-mevalono-lactone in 25 μL of H2 O (recovery standard) and 90 μL of 5 N aqueous HCl were added. […] Quantities of collected ^14 C-mevalonate mevalonate were corrected for ^3 -mevalonate recovery before conversion to catalytic rates. Each inhibitor concentration was assayed in triplicate and conversion of (S)-HMG Coenzyme A to product was always less than 20%. Rates in the presence of inhibitors were compared to control rates to generate % inhibition values. When % inhibition was plotted against inhibitor concentration, the resulting curve provided an IC50 value for the inhibitor in question, IC50 being defined as the concentration required to inhibit the enzyme by 50% of control.

Assay [2] has as its system HMG CoA reductase. Conditions: background, U.S. Pat. Nos. 4,049,495, 4,137,332, 3,983,140; cited from earlier work.
The subject of assay [3] is biosynthesis of cholesterol. Conditions: background; cited from earlier work.

`CC[C@H](C)C(=O)O[C@H]1CCC=C2C=C[C@H](C)[C@H](/C=C/C(=O)C[C@@H](O)CC(=O)O)[C@H]21` [Formula 41*]: at HMG CoA reductase [1], the “antihypercholesterolemic activity (HMG CoA reductase inhibition, in words)” value is “possessing antihypercholesterolemic activity” and the IC50 amounted to 230 nM.

Regarding `CC[C@H](C)C(=O)O[C@H]1CCC=C2C=C[C@H](C)[C@H](CC[C@@H]3C[C@@H](O)CC(=O)O3)[C@H]21` [Formula 1], the IC50 on HMG CoA reductase [1] came to 9 nM. In addition, in the assay with HMG CoA reductase [2], the “inhibition of HMG CoA reductase (in words)” value is “display utility as inhibitors of the enzyme hydroxymethylglutaryl coenzyme A reductase”. Further, in assay [3], the “inhibition of the biosynthesis of cholesterol (in words)” value was “potent as inhibitors of the biosynthesis of cholesterol”.

Take `CC[C@H](C)C(=O)O[C@H]1CCC=C2C=C[C@H](C)[C@H](COC(=O)C[C@@H](O)CC(=O)O)[C@H]21` [Formula 63*, (1S,2S,8S,8aR)-1-[(S)-(3-Hydroxy-4-carboxybutyryl)oxymethyl]-2-methyl-8-[(S)-(2methylbutyryl)oxy]-1,2,6,7,8a-hexahydronaphthalene]: on HMG CoA reductase [1], the “antihypercholesterolemic activity (HMG CoA reductase inhibition, in words)” value is on record as “possessing antihypercholesterolemic activity” and the IC50 amounted to 300 nM.

Regarding `CC[C@H](C)C(=O)O[C@H]1C[C@@H](C)C=C2C=C[C@H](C)[C@H](CC[C@@H]3C[C@@H](O)CC(=O)O3)[C@H]21` [Formula 2], the “inhibition of HMG CoA reductase (in words)” value with HMG CoA reductase [2] was “display utility as inhibitors of the enzyme hydroxymethylglutaryl coenzyme A reductase”. Besides, the “inhibition of the biosynthesis of cholesterol (in words)” value in assay [3] was “potent as inhibitors of the biosynthesis of cholesterol”.

As to `CC[C@H](C)C(=O)O[C@H]1CCC=C2C=C[C@H](C)[C@H](CCC(=O)C[C@@H](O)CC(=O)O)[C@H]21` [Formula 53], at HMG CoA reductase [1], the “antihypercholesterolemic activity (HMG CoA reductase inhibition, in words)” value is “possessing antihypercholesterolemic activity” and the IC50 turned out to be 16 nM.

(Values after US4950775A, “Antihypercholesterolemic compounds and synthesis thereof” (University of California, priority 1985, dated 1990).)
